Test results from patent publication US4339454A, “Alkoxymethyl and benzyloxymethyl phenobarbital therapeutic compositions” (priority 1978, dated 1982).

Key:
maximal electroshock = test: Anticonvulsant effectiveness against maximal electroshock, mice; assay type: in vivo, mice (Charles River strain); conditions: for Time of peak activity: mice, oral, maximal electroshock
Protocol: (§1) All tests, with the exceptions noted, were conducted on adult albino male mice (Charles River strain); the dosage consisted of the active agent suspended in 10% aqueous acacia and was administered orally unless otherwise indicated.
Anticonvulsant effectiveness of each agent against maximal electroshock was determined at the time of peak effect. The time of peak anticonvulsant activity was determined by administering dosages of various sizes to a group of animals and administering a maximal electroshock to the animals at intervals thereafter by supplying 60 ma. current through a corneal electrode for 0.2 second. […] The time of peak effect thus determined was used for all subsequent tests of anticonvulsant activity on the same active agent.

central nervous system = test: Hypnotic activity: loss of the righting reflex (onset of sleep); assay type: in vivo, mice (Charles River strain); conditions: any dosage less than a lethal dose for the compounds of the invention
Protocol: as §1

[1] = literature / prior knowledge; cited from earlier work
[2] = prior knowledge; cited from earlier work
Metrazol = test: Anticonvulsant effectiveness against convulsive dose of Metrazol, mice; assay type: in vivo, mice (Charles River strain); conditions: oral
Protocol: as §1
Anticonvulsant effectiveness was determined against a convulsive dose of Metrazol (106.25 mg/kg) injected subcutaneously; the criterior for effectiveness was failure to show clonic convulsive seizures. Anticonvulsant activity was determined against a lethal dose of strychnine sulfate (1.5 mg/kg) injected subcutaneously; the criterion was failure to die, even though seizures appeared.

Structure (SMILES): CCCCCCCCCCCCOCN1C(=O)N(COCCCCCCCCCCCC)C(=O)C(CC)(c2ccccc2)C1=O [Example 8, 1,3-dilauryloxymethyl-5-ethyl-5-phenyl barbituric acid]
- Time of peak activity (maximal electroshock): 2 h

Structure (SMILES): CCC1(c2ccccc2)C(=O)NC(=O)NC1=O [Phenobarbital, phenobarbital]
- Hypnotic activity (loss of the righting reflex) (central nervous system): did exhibit hypnotic activity
- Hypnotic activity, known or reported [1]: exhibits hypnotic activity

Structure (SMILES): O=C1NC(=O)C(c2ccccc2)(c2ccccc2)N1 [diphenylhydantoin]
- Undesirable side effects [2]: hypertrophic gingivitis, megaloblastic anemia, toxic psychoses, and hirsutism
- Hypnotic activity, known or reported [1]: not hypnotic

Structure (SMILES): CCC1(c2ccccc2)C(=O)N(COC)C(=O)N(COC)C1=O [Example 1, 1,3-dimethoxymethyl-5-ethyl-5-phenyl barbituric acid]
- Duration of anticonvulsant effect against maximal electroshock (in words) (maximal electroshock; 0.1 millimole/kg): protection continued at about the same level for more than eight hours
- Onset of protection against maximal electroshock (in words) (maximal electroshock; 0.1 millimole/kg): only after two hours
- Time of peak activity (maximal electroshock): 2 h
- Change in ED50 to protect against maximal electroshock on repeated daily dosage (maximal electroshock; repeated daily dosage of same animals for four days): no significant change
- Hypnotic activity, known or reported [1]: without effect

Structure (SMILES): CCCCCCCCCCCCOCN1C(=O)N(COCCCCCCCCCCCC)C(=O)C(CC)(CC)C1=O [Example 10, 1,3-di-n-dodecyloxymethyl-5,5-diethyl barbituric acid]
- Time of peak activity (in words) (Metrazol): about one hour

Structure (SMILES): CCC1(c2ccccc2)C(=O)NC(=O)NC1=O [phenobarbital sodium, reference compound]
- Duration of anticonvulsant effect against maximal electroshock (in words) (maximal electroshock; 0.1 millimole/kg): protection began to decrease after four hours and was nearly gone by eight hours
- Onset of protection against maximal electroshock (maximal electroshock; 0.1 millimole/kg): less than 0.5 hour

Structure (SMILES): CCC1(CC)C(=O)N(COC)C(=O)N(COC)C1=O [Example 9, 1,3-dimethoxymethyl-5,5-diethylbarbituric acid]
- Time of peak activity (Metrazol): 1 h

Structure (SMILES): COCN1C(=O)NC(c2ccccc2)(c2ccccc2)C1=O [Example 2, 3-methoxymethyl-5,5-diphenylhydantoin]
- Onset of anticonvulsant activity (maximal electroshock) after ingestion (maximal electroshock; after ingestion): less than 0.5 hour
